The text below walks through data of patent US20210205292A1, “INHIBITORS OF CREB-CBP INTERACTION FOR TREATMENT OF LEUKEMIA” (The Board of Trustees of the Leland Stanford Junior …, priority 2016, published 2021).

Broadly, the pIC50 is the negative decadic logarithm of the IC50, by convention in mol/L.

Experiment [1] addresses T1, CREB-CBP binding (KID-KIX) (Homo sapiens, UniProt Q92793).
T1 construct: the KID and KIX domains were fused to the N- and C-terminal regions of Renilla luciferase, respectively; expressed in transfected cells; host or cells: 293T cells treated with forskolin
The experiment in a line: Split Renilla luciferase complementation assay. To be noted: 293T cells treated with forskolin; read-out: IC50, inhibition of the interaction between CREB and CBP. The experiment is classed as cell-based. The procedure:
KG-1 cell lines were created to express luciferase in a CREB-dependent or non-CREB-dependent fashion using lentiviral gene delivery. Cells were sorted for mCherry expression by flow cytometry and selected with puromycin. Luciferase activity was measured on a […] using the Promega Luciferase Activity Kit (Promega) per manufacturer's instructions following six hours of treatment with Compound A or 0.1% DMSO. The split Renilla luciferase complementation assay has been described previously (Li BX, and Xiao X. Discovery of a small-molecule inhibitor of the KIX-KID interaction. Chembiochem: a European journal of chemical biology. 2009; 10(17):2721-4). In this assay, the KID and KIX domains were fused to the N- and C-terminal regions of Renilla luciferase, respectively. Once KIX binds phosphorylated KID, the Renilla luciferase regions were brought together, resulting in luciferase activity.
To test the ability of Compound A to disrupt CREB-CBP binding in cells, a split Renilla luciferase complementation assay was performed. […] This early timepoint was selected to permit accurate reporter gene activity measurement prior to the onset of anticipated global cell dysfunction or death induced by Compound A. Treatment with 3 μM Compound A reduced luciferase activity by 33.2±7.7% at this timepoint. […] Thus, Compound A inhibits CREB function through disruption of CREB:CBP interaction.

Experiment [2] concerns CREB target genes. The experiment can be described thus: RT-PCR of CREB target genes in GFP+ bone marrow cells of engrafted NSG mice. In kind it is in vivo, mouse. As to conditions: 2.3 mg/kg, three once-daily treatments after ten-day engraftment. The procedure: To directly evaluate the effects of Compound A on CREB transcriptional activity in vivo, six NSG mice were injected with 2×10^6 HL-60 expressing GFP. After a ten-day engraftment period, the mice received three once-daily treatments of either 2.3 mg/kg Compound A or DMSO. The mice were then sacrificed and GFP+ bone marrow cells were sorted and analyzed for transcriptional changes in validated CREB target genes. This experiment recapitulated in vitro findings (FIG. 4, panel E).

Experiment [3] concerns primary AML patient bone marrow samples. The experiment can be described thus: Single cell mass cytometry (CyTOF) of primary AML patient samples. In kind it is cell-based, human. The procedure: These were stained for viability using cisplatin. Cells were fixed with 1.6% PFA (Electron Microscopy Sciences) for 10 min and washed with cell staining media (CSM). Fc receptor block was performed using Human TruStain FcX (Biolegend) following manufacturer's instructions. Cells were stained for surface proteins at room temperature for 30 min. Following staining, cells were washed twice with CSM and permeabilized with methanol pre-cooled to 4° C. for 10 min. Cells were then washed twice and stained for intracellular proteins for 30 min at room temperature. Surface and intracellular staining cocktails are listed in supplementary methods. Cells were washed and stained with 1 mL of 2000× iridium DNA intercalator (diluted 1:5000 in PBS with 1.6% PFA; DVS Sciences) overnight at 4° C. Data were acquired using internal metal isotope bead standards as previously described (Finck et al., “Normalization of mass cytometry data with bead standards.” Cytometry A. 2013; 83(5):483-94). Cell events were acquired at approximately 500 events per second on a CyTOF I (DVS Sciences/Fluidigm). All antibodies were also purchased from DVS Sciences/Fluidigm. Each patient sample was individually normalized to the internal bead standards prior to analysis. […]

For experiment [4], the system named is H3K27 acetylation. The experiment in a line: Western blot of total and H3K27-specific histone acetylation. As to conditions: 6 or 24 hours. In kind it is cell-based. The procedure:
Cells were lysed in RIPA buffer (Sigma), and the protein concentrations were determined by BCA assay (Thermo Scientific Pierce). Lysates were solubilized in 6×SDS PAGE buffer and […] of protein was loaded into 6-15% SDS PAGE gels, pheresed, and then transferred onto […] PVDF membrane (Millipore). Primary antibodies were applied at a dilution of 1:1000. Anti-Bcl-2, -Bax, -Mcl-1, -Bcl-XL, -Cyclin A and -Cyclin D1 antibodies were purchased from Cell Signaling Technologies. Anti-total acetylated histone and -ac-H3K27 were purchased from Santa Cruz Biotechnologies. Anti-actin and -CREB antibodies were purchased from upstate. Secondary antibodies were used at a 1:2500 dilution and purchased from Thermo Scientific/Pierce. WesternBright ECL was used for image acquisition on Image Lab software (Bio-Rad).

pIC50: −log10 of the molar value. Several values for one entry are separate records, joined by “and”; a condition that tells them apart may be missing. Identical values can stand only once.

T1 sequence (Q92793 587-666 limits assumed): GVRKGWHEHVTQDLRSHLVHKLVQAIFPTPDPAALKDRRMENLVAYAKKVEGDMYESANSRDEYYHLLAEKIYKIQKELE

Take `N#Cc1ccc(NC(=O)c2cc3ccccc3cc2O)cc1` [Compound A, N-(4-cyanophenyl)-3-hydroxy-2-naphthamide]: in experiment [1], the pIC50 was ~5.49 and 5.49. Also, in experiment [2], the “expression of CREB target genes in vivo (RT-PCR)” value is “significantly reduced expression of all genes shown”. For the same compound, the “cells in S-phase (CyTOF)” value in experiment [3] (patient sample 97, CD34+CD38− subpopulation) is < 0.1 % of total. The “Bcl-2 expression (CyTOF)” value in experiment [3] (patient samples 96 and 186, all cell subpopulations, 2 µM, 48 hours) is “reduced Bcl-2 expression”. The “H3K27 acetylation (Western blot)” value in experiment [4] was “specific decrease in H3K27 acetylation”.
